PMC12329534, “Sal is a proteobacterial bile acid aldolase that repurposes key thiolase catalytic residues for retroaldol cleavage of C5 steroid side chains” (The Journal of Biological Chemistry, 2025)

Key:
[1] = target: T1, CtShy–CtSal complex (CtSal steroid aldolase activity) (Comamonas testosteroni, UniProt B7X4S8); assay: CtSad-coupled NADH formation at […] nm; assay type: biochemical; conditions: apparent; 1 mM NAD+ and 7 nM CtSad for coupling, 100 mM HEPES pH 7.5, 25 °C
T1 construct: gene CtesDRAFT_PD3654; full-length CtShy–CtSal complex co-expressed in E. coli BL21 LOBSTR, His-tag purified; heterotetramer, 160 kDa by SEC (CtShy 35 kDa, CtSal 46 kDa); with Steroid hydratase Shy (DUF35/OB-fold and MaoC domain-containing protein)
T1 sequence (B7X4S8 1-404): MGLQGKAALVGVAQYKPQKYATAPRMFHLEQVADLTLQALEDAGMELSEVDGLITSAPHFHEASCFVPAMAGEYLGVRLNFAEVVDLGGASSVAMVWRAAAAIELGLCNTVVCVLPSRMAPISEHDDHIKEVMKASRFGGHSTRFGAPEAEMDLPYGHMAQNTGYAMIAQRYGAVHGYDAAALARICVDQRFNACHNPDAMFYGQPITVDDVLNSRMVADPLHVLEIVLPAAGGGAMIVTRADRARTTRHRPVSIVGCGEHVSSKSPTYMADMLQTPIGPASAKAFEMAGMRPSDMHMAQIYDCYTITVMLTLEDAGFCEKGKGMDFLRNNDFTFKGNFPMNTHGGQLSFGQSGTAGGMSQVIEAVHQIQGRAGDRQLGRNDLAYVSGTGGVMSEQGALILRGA
T1 sequence (B7X4S7 1-312 partner): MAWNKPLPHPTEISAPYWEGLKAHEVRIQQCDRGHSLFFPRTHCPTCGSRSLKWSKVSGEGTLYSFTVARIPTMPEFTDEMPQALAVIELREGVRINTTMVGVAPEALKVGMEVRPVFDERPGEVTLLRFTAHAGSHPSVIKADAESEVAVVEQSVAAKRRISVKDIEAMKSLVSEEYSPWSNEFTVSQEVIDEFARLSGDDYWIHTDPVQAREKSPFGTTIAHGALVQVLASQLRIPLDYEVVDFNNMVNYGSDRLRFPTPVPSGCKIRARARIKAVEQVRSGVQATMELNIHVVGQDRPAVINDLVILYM

[2] = target: T2, 17-β-hydroxysteroid dehydrogenase (Hsd4A) (Rhodococcus jostii, UniProt Q0S7K5); assay: LC-MS/MS of product; NADH formation at […] nm; assay type: biochemical; conditions: 1 mM NAD+; substrate made in situ from cholyl-enoyl-CoA by CtShy–CtSal; 100 mM HEPES pH 7.5, 25 °C or 50 mM ammonium acetate pH 7.4
T2 construct: isolated enzyme; construct not described in main text
T2 sequence (Q0S7K5 1-305): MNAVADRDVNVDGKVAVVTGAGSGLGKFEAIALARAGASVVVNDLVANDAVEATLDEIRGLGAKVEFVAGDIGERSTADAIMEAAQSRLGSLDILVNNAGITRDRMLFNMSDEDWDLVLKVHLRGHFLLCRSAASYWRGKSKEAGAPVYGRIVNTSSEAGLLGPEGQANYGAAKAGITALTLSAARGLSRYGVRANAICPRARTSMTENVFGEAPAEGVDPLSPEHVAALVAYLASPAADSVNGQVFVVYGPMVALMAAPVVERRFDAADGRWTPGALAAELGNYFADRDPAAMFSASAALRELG

[3] = system: T3, C[C@H](C(O)CC(=O)SCCNC(=O)CCNC(=O)[C@H](O)C(C)(C)COP(=O)(O)OP(=O)(O)OC[C@H]1O[C@@H](n2cnc3c(N)ncnc32)[C@H](O)[C@@H]1OP(=O)(O)O)[C@H]1CC[C@H]2[C@@H]3[C@H](O)C[C@@H]4C[C@H](O)CC[C@]4(C)[C@H]3C[C@H](O)[C@]12C; assay: purified protein; assay type: biochemical, Comamonas testosteroni; conditions: apparent, 1 mM NAD+ and 7 nM CtSad for coupling, 100 mM HEPES pH 7.5, 25 °C
T3 construct: full-length CtShy–CtSal complex co-expressed in E. coli BL21 LOBSTR, His-tag purified; heterotetramer, 160 kDa by SEC (CtShy 35 kDa, CtSal 46 kDa); with Steroid hydratase Shy (DUF35/OB-fold and MaoC domain-containing protein)

[4] = target: T4, CtShy–CtSal complex (CtShy steroid hydratase activity) (Comamonas testosteroni, UniProt B7X4S7); assay: LC-MS/MS of products; Hsd4A-coupled NADH end point; assay type: biochemical; conditions: 50 mM ammonium acetate pH 7.4 (LC-MS) or 100 mM HEPES pH 7.5, 25 °C; NAD+ and excess Hsd4A
T4 construct: gene CtesDRAFT_PD3653; full-length CtShy–CtSal complex from E. coli BL21 LOBSTR, His-tag purified; MaoC domain of CtShy is the hydratase domain; with Steroid aldolase Sal (thiolase-like protein)
T4 sequence (B7X4S7 1-312): T1 sequence (B7X4S7 1-312 partner)

## C[C@H](C(O)CC(=O)SCCNC(=O)CCNC(=O)[C@H](O)C(C)(C)COP(=O)(O)OP(=O)(O)OC[C@H]1O[C@@H](n2cnc3c(N)ncnc32)[C@H](O)[C@@H]1OP(=O)(O)O)[C@H]1CC[C@H]2[C@@H]3[C@H](O)C[C@@H]4C[C@H](O)CC[C@]4(C)[C@H]3C[C@H](O)[C@]12C (stereo partly drawn) [Cholyl-22-OH-CoA]
[1]
  Km: 8.12 ± 0.477 µM
[2]
  LC-MS/MS of product; NADH formation at 340 nm: Hsd4A effectively sequestered the CtShy product to form cholyl-22-oxo-CoA

## CtShy–CtSal complex (CtSal steroid aldolase activity) (Comamonas testosteroni KF-1; R216A)
[3]
  Km: 41.4 ± 1.29 µM
  kcat: 11.6 ± 0.15 s⁻¹
  kcat/Km: 281000 ± 876 M⁻¹ s⁻¹

## C[C@H](/C=C/C(=O)SCCNC(=O)CCNC(=O)[C@H](O)C(C)(C)COP(=O)(O)OP(=O)(O)OC[C@H]1O[C@@H](n2cnc3c(N)ncnc32)[C@H](O)[C@@H]1OP(=O)(O)O)[C@H]1CC[C@H]2[C@@H]3[C@H](O)C[C@@H]4C[C@H](O)CC[C@]4(C)[C@H]3C[C@H](O)[C@]12C [cholyl-enoyl-CoA]
[4]
  LC-MS/MS of products; Hsd4A-coupled NADH end point: Hsd4A effectively sequestered the CtShy product to form cholyl-22-oxo-CoA
